Measurements as given in patent US7235649B2, “Isolated GRP94 ligand binding domain polypeptide and nucleic acid encoding same, and screening methods employing same” (Duke University, priority 2000, dated 2007).

Assays:
[1] = molecular target: T1, GRP94 (Sus scrofa, UniProt Q29092); experiment: [32P]ATP binding assay (nitrocellulose filtration); parameters: GRP94 was purified from porcine pancreas rough microsomes; from tissue; host or cells: porcine pancreas rough microsomes; species or system porcine; details: 50 μM [32P]ATP, 1 hour on ice
Method: (§1) ATP Binding Assay. Six μg of GRP94, BiP, and Hsp90 was incubated with 50 μM yZ[^32P] ATP (1000 μCi/μmol) (Amersham Pharmacia Biotech of Piscataway, N.J.) in buffer B on ice for 1 hour. Nitrocellulose filters (BA85) (Schleicher & Schuell of Keene, N.H.) were individually wet in buffer B before use, and bound versus free [^32P]-ATP was separated by vacuum filtration. Filters were washed with 3×2 mL of ice cold buffer B, placed in 5 mL of scintillation fluid, vortexed, and counted.

[2] = molecular target: N-terminal nucleotide binding pocket of Hsp90 (Saccharomyces cerevisiae, UniProt P02829); details: Prodromou et al. (1997); read-out: Kd of ATP for Hsp90; cited from earlier work
[3] = molecular target: T1, GRP94; experiment: [3H]-NECA competitive displacement assay; format: binding, porcine; parameters: GRP94 was purified from porcine pancreas rough microsomes; from tissue; host or cells: porcine pancreas rough microsomes; details: for effect of excess Mg2+ on binding to GRP94: 10 mM Mg(OAc)2 vs nominal endogenous magnesium
[4] = molecular target: T1, GRP94; experiment: Tryptophan fluorescence (ligand-induced conformational change); details: 50 μM NECA, 50 μM geldanamycin, 2.5 mM ATP or 2.5 mM ADP, 1 hour at 37° C.
Method: Tryptophan Fluorescence. Tryptophan fluorescence measurements were conducted in a FLUOROMAX™ spectrofluorometer (Spex Industries, Inc. of Edison, N.J.) with the slit widths set to 1 nm for both excitation and emission. […] All spectra were corrected by subtraction of buffer or buffer plus ligand samples. […] Samples were then cooled to room temperature, transferred to a quartz cuvette, and the spectra collected.

[5] = tested on: Hsp90; experiment: [32P]ATP binding assay (nitrocellulose filtration); parameters: species or system rat; details: 50 μM [32P]ATP, 1 hour on ice
Method: Hsp90 was purified from rat liver cytosol as follows. Cytosol was adjusted to 30% ammonium sulfate and stirred for 60 min on ice. The solution was centrifuged at 20,000×g in a Sorvall SS34 rotor for 15 minutes and the supernatant collected and filtered through a 0.22 μm filter. The filtered supernatant was supplemented with protease inhibitors (1 μg/ml pepstatin, 1 μg/ml leupeptin, 20 μg/ml SBTI, and 0.5 mM PMSF) and loaded onto a phenyl-SUPEROSE™ HR10/10 column (Amersham Pharmacia Biotech of Piscataway, N.J.). After washing, the bound proteins were eluted with a gradient of 30–0% saturated ammonium sulfate in 10 mM Tris/HCl, pH 7.5, 1 mM EGTA, 0.5 mM DTT and the Hsp90 containing fractions were identified by SDS-PAGE. The Hsp90 containing fractions were then pooled and dialyzed 2×3 hr against 2 L of low salt buffer (10 mM NaCl, 25 mM Tris, pH 7.8). The dialyzed sample was then filtered through a 0.22 μm filter, and injected onto a MONO-Q™ HR 10/10 column (Amersham Pharmacia Biotech of Piscataway, N.J.) equilibrated in low salt buffer. The column was eluted with a gradient of 10 mM–750 mM NaCl in 25 mM Tris, pH 7.8. The Hsp90-containing fractions were identified by SDS-PAGE and pooled.
ATP Binding Assay. Six μg of GRP94, BiP, and Hsp90 was incubated with 50 μM yZ[^32P] […] Filters were washed with 3×2 mL of ice cold buffer B, placed in 5 mL of scintillation fluid, vortexed, and counted.

[6] = tested on: BiP; experiment: [32P]ATP binding assay (nitrocellulose filtration); parameters: species or system porcine; details: 50 μM [32P]ATP, 1 hour on ice
Method: (§2) BiP was purified by the following procedure. A lumenal protein fraction obtained from porcine pancreas rough microsomes was cycled overnight through a 1 ml ADP-agarose and a 1 ml ATP-agarose (Sigma Chemical Co. of St. Louis, Mo.) column coupled in series. […] The BiP containing fractions were identified by SDS-PAGE, and dialyzed against 2×4 L of buffer A (110 mM KOAc, 20 mM NaCl, 25 mM K-Hepes, pH 7.2, 2 mM Mg(OAc)2 0.1 mM CaCl2). The protein sample was then applied to a SUPERDEX® 26/60 column (Amersham Pharmacia Biotech of Piscataway, N.J.) equilibrated in buffer A, and the BiP containing fractions, again identified by SDS-PAGE, were pooled and concentrated by centrifugal ultrafiltration (CENTRICON-30®; Amicon of Beverly, Mass.).
as §1

[7] = molecular target: T1, GRP94; experiment: [3H]-NECA binding assay (vacuum filtration); parameters: GRP94 was purified from porcine pancreas rough microsomes; from tissue; host or cells: porcine pancreas rough microsomes; species or system porcine
[8] = tested on: BiP; experiment: [3H]-NECA binding assay (vacuum filtration); parameters: species or system porcine; details: 20 nM [3H]-NECA, 60 min on ice
Method: as §2
[^3H]-NECA Binding Assay.
In similar experiments, [^3H]-NECA binding to Hsp90 was evaluated in the presence of molybdate and NP-40, which are known to stabilize the Hsp90 conformation associated with ATP binding, as described by Sullivan et al. (1997).

[9] = molecular target: casein kinase II (Homo sapiens, UniProt P68400); experiment: Casein kinase II assay with casein; format: biochemical; details: 180 μM NECA or 180 μM radicicol in 3.6% DMSO, 5 μg/ml heparin, 5 mM GTP; 4 μM casein
Method: (§3) Phosphorylation Assays. […] For the casein kinase assay, 1 unit of casein kinase 11 was incubated as described above, with the addition of 4 μM casein. […] The 25 μl reaction mixtures were incubated at 37° C. for 1 hour and quenched by addition of 10% trichloroacetic acid. Samples were analyzed by 10% SDS-PAGE gels and the phosphorylated species were quantitated using a Fuji MACBAS1000™ phosphorimaging system (Fuji Medical Systems of Stamford, Conn.).

[10] = molecular target: T1, GRP94; experiment: Isothermal titration calorimetry; format: binding, porcine; parameters: GRP94 was purified from porcine pancreas rough microsomes; from tissue; host or cells: porcine pancreas rough microsomes; details: 5 μM GRP94, 152 μM NECA stock, 25° C.
Method: Isothermal calorimetry experiments were performed at 25° C. using a MSC calorimeter (MicroCal Inc. of Northampton, Mass.). […] Necessary corrections were made by subtracting the heats of dilution resulting from buffer addition to protein solution and ligand solution into buffer.

[11] = molecular target: T1, GRP94; experiment: GRP94 autophosphorylation assay; format: biochemical, porcine; parameters: GRP94 was purified from porcine pancreas rough microsomes; from tissue; host or cells: porcine pancreas rough microsomes; details: 180 μM NECA or 180 μM radicicol in 3.6% DMSO, 5 μg/ml heparin, 5 mM GTP; 1 hour 37° C.
Method: as §3

T1 sequence (Q29092 22-804): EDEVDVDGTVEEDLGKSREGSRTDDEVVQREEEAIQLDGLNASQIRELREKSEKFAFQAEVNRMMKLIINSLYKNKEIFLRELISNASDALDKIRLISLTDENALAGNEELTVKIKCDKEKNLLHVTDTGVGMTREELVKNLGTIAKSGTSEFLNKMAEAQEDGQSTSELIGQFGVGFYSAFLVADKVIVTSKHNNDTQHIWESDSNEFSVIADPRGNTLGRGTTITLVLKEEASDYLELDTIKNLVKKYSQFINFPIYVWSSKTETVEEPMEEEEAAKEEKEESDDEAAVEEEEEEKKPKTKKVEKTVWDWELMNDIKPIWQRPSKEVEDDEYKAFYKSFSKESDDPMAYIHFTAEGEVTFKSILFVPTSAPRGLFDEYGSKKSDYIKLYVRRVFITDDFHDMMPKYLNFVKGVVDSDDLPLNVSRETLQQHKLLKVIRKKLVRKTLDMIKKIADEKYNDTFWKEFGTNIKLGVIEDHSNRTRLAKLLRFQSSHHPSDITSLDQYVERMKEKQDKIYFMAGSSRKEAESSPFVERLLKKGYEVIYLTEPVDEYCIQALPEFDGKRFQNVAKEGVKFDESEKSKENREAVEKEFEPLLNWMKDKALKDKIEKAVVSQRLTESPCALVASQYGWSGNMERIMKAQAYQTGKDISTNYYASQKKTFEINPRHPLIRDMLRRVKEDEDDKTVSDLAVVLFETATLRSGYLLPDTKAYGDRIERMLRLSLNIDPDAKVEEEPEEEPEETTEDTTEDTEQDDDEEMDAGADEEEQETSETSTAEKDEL
Chain of N-terminal nucleotide binding pocket of Hsp90 (P02829 whole entry): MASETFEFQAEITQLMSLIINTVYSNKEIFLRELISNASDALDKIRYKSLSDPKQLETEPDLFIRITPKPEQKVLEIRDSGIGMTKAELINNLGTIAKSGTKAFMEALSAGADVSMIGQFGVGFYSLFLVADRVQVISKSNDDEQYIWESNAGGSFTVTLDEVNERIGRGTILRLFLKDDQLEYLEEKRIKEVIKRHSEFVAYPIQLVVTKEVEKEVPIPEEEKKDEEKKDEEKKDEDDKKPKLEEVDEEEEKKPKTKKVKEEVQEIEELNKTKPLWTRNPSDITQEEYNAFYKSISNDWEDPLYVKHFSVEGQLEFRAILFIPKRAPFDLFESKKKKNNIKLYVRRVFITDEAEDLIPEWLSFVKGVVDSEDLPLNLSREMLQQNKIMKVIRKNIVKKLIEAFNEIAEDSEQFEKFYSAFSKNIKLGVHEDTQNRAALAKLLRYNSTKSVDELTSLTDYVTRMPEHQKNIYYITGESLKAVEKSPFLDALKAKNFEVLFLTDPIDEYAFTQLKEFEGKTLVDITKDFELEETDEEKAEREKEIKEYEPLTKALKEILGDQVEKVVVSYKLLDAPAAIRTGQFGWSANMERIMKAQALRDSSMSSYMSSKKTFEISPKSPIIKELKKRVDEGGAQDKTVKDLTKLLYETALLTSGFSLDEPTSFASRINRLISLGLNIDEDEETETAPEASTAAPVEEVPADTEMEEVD
Chain of casein kinase II (P68400 whole entry): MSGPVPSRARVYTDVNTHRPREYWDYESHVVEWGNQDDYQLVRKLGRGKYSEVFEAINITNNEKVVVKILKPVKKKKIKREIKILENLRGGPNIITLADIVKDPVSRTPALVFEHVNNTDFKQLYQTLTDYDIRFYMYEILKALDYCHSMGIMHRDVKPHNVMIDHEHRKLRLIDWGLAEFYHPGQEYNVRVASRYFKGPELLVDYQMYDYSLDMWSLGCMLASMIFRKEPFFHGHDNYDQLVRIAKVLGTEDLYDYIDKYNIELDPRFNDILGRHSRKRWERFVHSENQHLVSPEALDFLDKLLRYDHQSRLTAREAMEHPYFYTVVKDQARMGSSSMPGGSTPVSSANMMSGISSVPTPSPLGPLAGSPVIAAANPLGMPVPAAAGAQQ
Chain of casein kinase II (P67870 whole entry partner): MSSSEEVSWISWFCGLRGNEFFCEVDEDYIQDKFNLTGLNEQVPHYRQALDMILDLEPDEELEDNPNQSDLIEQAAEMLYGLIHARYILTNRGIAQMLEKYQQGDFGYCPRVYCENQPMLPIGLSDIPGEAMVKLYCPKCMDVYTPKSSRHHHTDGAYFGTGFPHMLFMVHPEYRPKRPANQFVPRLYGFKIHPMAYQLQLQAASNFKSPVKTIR

Nc1ncnc2c1ncn2[C@@H]1O[C@H](COP(=O)(O)OP(=O)(O)OP(=O)(O)O)[C@@H](O)[C@H]1O [ATP]
ATP binding to GRP94 [1]: no ATP binding was observed
Kd [2]: 132 µM
molar excess of competitor required for 50% inhibition of [3H]-NECA binding ([3]; 20 nM [3H]-NECA): ~1000 -fold molar excess
competition with [3H]-NECA for binding to GRP94 (adenosine ligands) ([3]; 20 nM [3H]-NECA, nominal (80 μM) Mg2+): effectively competed
effect of excess Mg2+ on binding to GRP94 [3]: markedly stimulated
extent of competition of NECA binding to GRP94 ([3]; FIGS. 10A–10C): wholly competed
nucleoside base specificity: binding by [3H]-NECA competitive displacement ([3]; competitors all at 50 μM, 20 nM [3H]-NECA): could bind
relative affinities for GRP94 in presence of Mg2+ ([3]; excess Mg2+): nearly identical relative affinities
efficacy of competing NECA binding, ATP relative to ADP ([3]; nominal Mg2+): eight-fold higher efficacy than ADP
change of GRP94 tryptophan fluorescence [4]: the tryptophan fluorescence was decreased
ATP binding to Hsp90 [5]: no ATP binding was observed
ATP binding to BiP [6]: displayed the expected ATP binding activity

CCNC(=O)[C@H]1O[C@@H](n2cnc3c(N)ncnc32)[C@H](O)[C@@H]1O [NECA, N-ethylcarboxamidoadenosine]
effect of excess Mg2+ on binding to GRP94 [3]: without effect
[3H]-NECA binding activity of GRP94 ([7]; 20 nM [3H]-NECA, 60 min on ice): readily detectable
stoichiometry of NECA bound to GRP94 at saturation (summary) ([7]; ligand binding studies and isothermal titration calorimetry): 1 mol NECA:mol GRP94 dimer
Hill plot slope of [3H]-NECA binding ([7]; saturation binding): 1.2
binding stoichiometry of [3H]-NECA ([7]; saturation binding): 0.5 mol [^3H]-NECA/mol GRP94 monomer
maximal binding stoichiometry of NECA ([7]; saturation curve, FIG. 9B): 1 molecule of NECA per molecule of GRP94 dimer
change of GRP94 tryptophan fluorescence [4]: increased the tryptophan fluorescence
[3H]-NECA binding to BiP [8]: not observed
effect on casein kinase II activity [9]: neither NECA nor radicicol, both of which bind to the N-terminal nucleotide binding domain of GRP94, significantly inhibit GRP94 derived or casein kinase II activity
binding stoichiometry of NECA by isothermal titration calorimetry [10]: 1.1 mol NECA/mol GRP94 dimer
effect on GRP94 autophosphorylation activity [11]: does not significantly inhibit GRP94 autophosphorylation activity
